Assay results as given in patent US8030071B2, “Restoration of cholesterol independence and its use as a selectable marker in NS0 cell culture” (priority 2005, dated 2011).

How the values were obtained:
NS0 cells [1] = assay: 5-azacytidine treatment and limiting dilution plating for cholesterol independent clones; format: cell-based, mouse
Procedure: Treatment with 5-azacytidine (5azaC) and isolation of cholesterol independent clones. NS0 cells at 200,000 cells/ml were treated with 5azaC (1 μM and 5 μM) in tissue culture flasks. After 48 hrs, the cells were washed and limiting dilution plating was carried out in 10 96-well plates at a dilution of 2,000 cells/well using CD Hybridoma medium without cholesterol supplement. Untreated NS0 cells were also plated in cholesterol-free medium as a control for background cholesterol independent variants in the cell population. The plates were incubated at 5% CO2, 37° C. and saturated humidity for 1-2 weeks.
5azaC treated cells were aliquoted into 96-well cell culture plates containing cholesterol-free medium. […] Single cell colonies were isolated from the 96-well culture plates and expanded to tissue culture flasks for further characterization.

Hsd17b7 = Hsd17b7 transcription after 5-azacytidine treatment (real-time PCR); format: cell-based, mouse; settings: NS0 cells treated with 5-azacytidine
Procedure: Reverse Transcription and Real-time comparative quantitative PCR. Total RNA was extracted from cells in exponential growth phase using the RNeasy Mini Kit (Qiagen, Valencia, Calif., USA), followed by reverse transcription with Superscript™ II RNase H^− Reverse Transcriptase (Invitrogen). For real-time comparative PCR analysis, samples were prepared using QuantiTect SYBR Green PCR kit (Qiagen) and reactions run on ABI 7700 (Applied Biosystems, Foster City, Calif., USA). Samples were analyzed in duplicates and β-actin was used as the normalization message. The fold change was calculated using the comparative CT method.

other systems = settings: baseline spontaneous reactivation frequency of 10^−5 or less (Holliday et al.); cited from earlier work
NS0 cells [2] = assay: Growth kinetics of NS0 cells in tissue culture flasks with sterol supplement; format: cell-based, mouse; settings: 5.0 μg/ml sterol, 4 mg/ml fatty acid-free BSA; for maximum cell density: after 70 hrs in culture; for growth of NS0 cells supported: tissue culture flasks
Procedure: The medium in all four flasks was supplemented with 4 mg/ml fatty acid-free BSA.
Cells and cell culture. NS0 and NS0_r, the cholesterol independent revertant, were obtained from Pfizer, Inc. (St. Louis, Mo.) and have been described previously (Seth et al., Biotechnol Bioeng, 90:552-67, 2005). Growth response of NS0 cells to various cholesterol biosynthesis pathway precursors and intermediates was studied in CD Hybridoma medium (Invitrogen, Carlsbad, Calif., USA) without cholesterol-lipid concentrate. […] Each well containing 1.5 ml precursor-supplemented medium was seeded with 2×10^5 cells/ml. NS0 cells cultured in the presence of cholesterol served as the positive control. Different intermediates were dissolved in 100% ethanol and added to the culture medium along with 4 mg/ml fatty acid-free BSA (Sigma, St. Louis, Mo., USA). […] Citric acid anhydrous, mevalonolactone, squalene, lanosterol, lathosterol, 7-dehydrocholesterol and cholesterol powder were purchased from Sigma (St. Louis, Mo., USA). All test conditions were performed in duplicate. The medium was supplemented with 4 mg/ml fatty acid-free BSA. Presence of BSA facilitates uptake of the sterol precursors (Sato et al., Mol Biol Med, 2, 121-34:1984).
In order to verify the block between lanosterol and lathosterol in the cholesterol biosynthetic pathway, growth kinetics of NS0 cells in the presence of lanosterol (5.0 μg/ml), lathosterol (5.0 μg/ml) and cholesterol (5.0 μg/ml) were determined. Cells were also grown in basal medium supplemented with fatty acid-free BSA only (FIG. 2b). […] Cells attained a maximum cell density of 4×10^6 cells/ml after 70 hrs in culture with lathosterol, compared to 3×10^6 cells/ml in medium supplemented with cholesterol. These observations were consistent over repeated cultures. The results support the notion that the block between lanosterol and lathosterol in the biosynthesis of cholesterol in NS0 is at least partly responsible for cholesterol auxotrophy in this cell line.

NS0 cells [3] = assay: Growth response of NS0 cells in 24-well plates to cholesterol biosynthesis precursors/intermediates; format: cell-based, mouse; settings: cholesterol-free CD Hybridoma medium, 4 mg/ml fatty acid-free BSA, three concentrations per precursor
Procedure: Cells and cell culture. […] Growth response of NS0 cells to various cholesterol biosynthesis pathway precursors and intermediates was studied in CD Hybridoma medium (Invitrogen, Carlsbad, Calif., USA) without cholesterol-lipid concentrate. […] Each well containing 1.5 ml precursor-supplemented medium was seeded with 2×10^5 cells/ml. NS0 cells cultured in the presence of cholesterol served as the positive control. Different intermediates were dissolved in 100% ethanol and added to the culture medium along with 4 mg/ml fatty acid-free BSA (Sigma, St. Louis, Mo., USA). […] All test conditions were performed in duplicate. The medium was supplemented with 4 mg/ml fatty acid-free BSA.

| SMILES | maximum cell density (NS0 cells [2]) | growth of NS0 cells supported by precursor/intermediate (NS0 cells [3]) | growth of NS0 cells supported (NS0 cells [2]) | further results |
| --- | --- | --- | --- | --- |
| Nc1ncn([C@@H]2O[C@H](CO)[C@@H](O)[C@H]2O)c(=O)n1 [5azaC, 5-azacytidine] |  |  |  | reversion rate to cholesterol independence (NS0 cells [1]; 1 μM 5azaC): less than 1×10^−6; Survival frequency of wells in a 96-well plate culture (NS0 cells [1]; 5 μM 5azaC, 2,000 cells/well, cholesterol-free medium): ~80 % of wells; cholesterol revertants after exposure (NS0 cells [1]; 5 μM 5azaC, 48 hrs, then cholesterol-free medium): many cholesterol revertants; transcriptional repression of Hsd17b7 (Hsd17b7): relieved; reactivated cells (other systems): 10-30% |
| CC(C)CCC[C@@H](C)[C@H]1CC[C@H]2[C@@H]3CC=C4C[C@@H](O)CC[C@]4(C)[C@H]3CC[C@]12C [cholesterol] | 3×10^6 cells/ml |  |  |  |
| CC(C)=CCC[C@@H](C)[C@H]1CC[C@@]2(C)C3=C(CC[C@]12C)[C@@]1(C)CC[C@H](O)C(C)(C)[C@@H]1CC3 [lanosterol] |  | Growth was not supported | unable to support the growth of NS0 cells |  |
| CC(C)CCC[C@@H](C)[C@H]1CC[C@H]2C3=CC[C@H]4C[C@@H](O)CC[C@]4(C)[C@H]3CC[C@]12C [lathosterol] | 4×10^6 cells/ml | able to support the growth of cells | effective in promoting the growth of NS0 cells |  |
| C[C@@]1(O)CCOC(=O)C1 [mevalonolactone] |  | Growth was not supported |  |  |
| CC(C)=CCC/C(C)=C/CC/C(C)=C/CC/C=C(\C)CC/C=C(\C)CCC=C(C)C [squalene] |  | Growth was not supported |  |  |
